# From ChEMBL document CHEMBL3244251, “Mitomycin antibiotics. Synthesis of 7-methoxy-1-(N-pyrrolidino)mitosene and its methiodide” (J Med Chem, 1978)
# Active and inactive are the calls of the source. No cut-off for these calls is given here.
# Key:
# [1] = system: Enterobacteria phage lambda; test: Induction of lambda phage production in streptomycin-dependent lysogenic Escherichia coli W1709 (lambda) assessed as ratio of plaques in treated culture to control at 0.8 ug/ml; assay type: functional
# Bacillus subtilis [2] = test: Antibacterial activity against Bacillus subtilis assessed as growth inhibition at 12.5 ug/ml in 100 mm disk at pH 8.0 by single-disk method; assay type: functional; details: read-out: IZ
# Bacillus subtilis [3] = test: Antibacterial activity against Bacillus subtilis assessed as growth inhibition at 3.1 ug/ml in 100 mm disk at pH 8.0 by single-disk method; assay type: functional; details: read-out: IZ
# [4] = system: Enterobacteria phage lambda; test: Induction of lambda phage production in streptomycin-dependent lysogenic Escherichia coli W1709 (lambda) assessed as ratio of plaques in treated culture to control at 3.1 ug/ml; assay type: functional
# Bacillus subtilis [5] = test: Antibacterial activity against Bacillus subtilis assessed as growth inhibition at 50 ug/ml in 100 mm disk at pH 8.0 by single-disk method; assay type: functional; details: read-out: IZ
# Bacillus subtilis [6] = test: Antibacterial activity against Bacillus subtilis assessed as growth inhibition at 0.2 ug/ml in 100 mm disk at pH 8.0 by single-disk method; assay type: functional; details: read-out: IZ
# Bacillus subtilis [7] = test: Antibacterial activity against Bacillus subtilis assessed as growth inhibition at 0.8 ug/ml in 100 mm disk at pH 8.0 by single-disk method; assay type: functional; details: read-out: IZ
# [8] = system: Enterobacteria phage lambda; test: Induction of lambda phage production in streptomycin-dependent lysogenic Escherichia coli W1709 (lambda) assessed as ratio of plaques in treated culture to control at 12.5 ug/ml; assay type: functional
# [9] = system: Enterobacteria phage lambda; test: Induction of lambda phage production in streptomycin-dependent lysogenic Escherichia coli W1709 (lambda) assessed as ratio of plaques in treated culture to control at 0.5 ug/ml; assay type: functional
# [10] = system: Enterobacteria phage lambda; test: Induction of lambda phage production in streptomycin-dependent lysogenic Escherichia coli W1709 (lambda) assessed as ratio of plaques in treated culture to control at 0.2 ug/ml; assay type: functional
# P388 [11] = test: In vivo antitumor activity against mouse P388 cells relative to control; assay type: functional, organism-based
# Escherichia coli [12] = test: Toxicity in streptomycin-dependent lysogenic Escherichia coli W1709 (lambda) at 12.5 ug/ml; assay type: organism-based; details: in vivo
# Escherichia coli [13] = test: Toxicity in streptomycin-dependent lysogenic Escherichia coli W1709 (lambda) at 3.1 ug/ml; assay type: organism-based; details: in vivo
# P388 [14] = test: In vivo antitumor activity against mouse P388 cells at 6.4 mg/kg relative to control; assay type: functional
# Escherichia coli [15] = test: Toxicity in streptomycin-dependent lysogenic Escherichia coli W1709 (lambda) at 0.8 ug/ml; assay type: organism-based; details: in vivo
# Bacillus subtilis [16] = test: Antibacterial activity against Bacillus subtilis assessed as growth inhibition at 16.6 ug/ml in 100 mm disk at pH 8.0 by single-disk method; assay type: functional; details: read-out: IZ
# Bacillus subtilis [17] = test: Antibacterial activity against Bacillus subtilis assessed as growth inhibition at 5.5 ug/ml in 100 mm disk at pH 8.0 by single-disk method; assay type: functional; details: read-out: IZ
# Escherichia coli [18] = test: Toxicity in streptomycin-dependent lysogenic Escherichia coli W1709 (lambda) at 0.5 ug/ml; assay type: organism-based; details: in vivo
# [19] = system: Enterobacteria phage lambda; test: Induction of lambda phage production in streptomycin-dependent lysogenic Escherichia coli W1709 (lambda) assessed as ratio of plaques in treated culture to control at 0.0125 ug/ml; assay type: functional
compound,measurement,setting,value
COC1=C(C)C(=O)c2c(c(COC(N)=O)c3n2CCC3N2CCCC2)C1=O (configuration not stated),T/C,[1],1.6
same,zone of inhibition at 12.5 µg/mL,Bacillus subtilis [2],27.8 mm
same,zone of inhibition at 3.1 µg/mL,Bacillus subtilis [3],22 mm
same,T/C,[4],3.6
same,zone of inhibition at 50 µg/mL,Bacillus subtilis [5],33 mm
same,zone of inhibition at 0.2 µg/mL,Bacillus subtilis [6],11.3 mm
same,zone of inhibition at 0.8 µg/mL,Bacillus subtilis [7],15.3 mm
same,T/C,[8],2.1
same,T/C,[9],1.2
same,T/C,[10],1.3
same,Activity,P388 [11],inactive
same,Activity,Escherichia coli [12],Toxic
COC1=C(C)C(=O)c2c(c(COC(N)=O)c3n2CCC3OC(C)=O)C1=O (configuration not stated),Activity,Escherichia coli [13],Toxic
same,T/C,[1],> 49
same,T/C,[4],> 74
same,zone of inhibition at 50 µg/mL,Bacillus subtilis [5],35 mm
same,T/C,P388 [14],162%
same,Activity,Escherichia coli [15],Toxic
same,T/C,[8],> 49
same,T/C,[10],27.9
same,zone of inhibition at 16.6 µg/mL,Bacillus subtilis [16],35 mm
same,Activity,Escherichia coli [12],Toxic
same,zone of inhibition at 5.5 µg/mL,Bacillus subtilis [17],31.2 mm
CO[C@@]12[C@H](COC(N)=O)C3=C(C(=O)C(C)=C(N)C3=O)N1C[C@@H]1N[C@@H]12 [MITOMYCIN],T/C,P388 [14],283%
same,Activity,Escherichia coli [18],Toxic
same,zone of inhibition at 0.2 µg/mL,Bacillus subtilis [6],22.8 mm
same,zone of inhibition at 0.8 µg/mL,Bacillus subtilis [7],32 mm
same,T/C,[9],17.5
same,T/C,[19],8.6
COC1=C(C)C(=O)c2c(c(COC(N)=O)c3n2CCC3[N+]2(C)CCCC2)C1=O (configuration not stated),T/C,[1],1.1
same,zone of inhibition at 12.5 µg/mL,Bacillus subtilis [2],10 mm
same,T/C,[4],1.2
same,zone of inhibition at 50 µg/mL,Bacillus subtilis [5],14.2 mm
same,T/C,[8],2.2
same,T/C,[9],1.1
same,T/C,[10],1.1
same,Activity,P388 [11],inactive
